Data reported in ChEMBL document CHEMBL5236561, “Rugonidines A-F, Diastereomeric 1,6-Dioxa-7,9-diazaspiro[4.5]dec-7-en-8-amines from the Leaves of Alchornea rugosa” (J Nat Prod, 2021).
Calls of active or inactive are those of the source.

Key:
Format in all cases: functional, cell-based
[1] = test system: 3T3-L1; assay: Induction of glucose uptake in mouse 3T3-L1 cells assessed as stimulation of in 2-NBDG uptake by measuring fluorescence intensity at 20 uM incubated for 1 hr in glucose free media hr by fluorescence microscopic analysis
[2] = test system: 3T3-L1; assay: Induction of glucose uptake in mouse 3T3-L1 cells assessed as stimulation of in 2-NBDG uptake by measuring fluorescence intensity at 5 to 20 uM incubated for 1 hr in glucose free media hr by fluorescence microscopic analysis; conditions: dose 5-20 µM
[3] = test system: 3T3-L1; assay: Induction of glucose uptake in mouse 3T3-L1 cells assessed as stimulation of in 2-NBDG uptake by measuring fluorescence intensity incubated for 1 hr in glucose free media hr by fluorescence microscopic analysis; conditions: dose 5-20 µM

Measured: Activity

C[C@@H]1O[C@@H](O[C@H]2Cc3c(O)cc4c(c3O[C@@H]2c2ccc(O)c(O)c2)C(C)(C)[C@@]2(CNC(N)=NO2)O4)[C@H](O)[C@H](O)[C@H]1O
active: [1] | [2] | [3] Dose-Dependent Effect

CC(C)=CCNC1=NO[C@]2(CN1)Oc1cc(O)c3c(c1C2(C)C)O[C@H](c1ccc(O)c(O)c1)[C@@H](O[C@@H]1O[C@@H](C)[C@H](O)[C@@H](O)[C@H]1O)C3
active: [1] | [2] | [3] Dose-Dependent Effect

CC(C)=CCNC1=NO[C@@]2(CN1)Oc1cc(O)c3c(c1C2(C)C)O[C@H](c1ccc(O)c(O)c1)[C@@H](O[C@@H]1O[C@@H](C)[C@H](O)[C@@H](O)[C@H]1O)C3
active: [1] | [2] | [3] Dose-Dependent Effect
